Read-outs that look alike come from different tables or passages of the source.
Assay: Cytotoxicity Assay (HCT116, CellTiter-Glo)
Type: cell-based
Details: human
Description: HCT116 cells were seeded in 96 well plates (Greiner Bio-One, Monroe, N.C.) and allowed to settle overnight. Test compound dissolved in dimethyl sulfoxide (DMSO) was added and drug incubation proceeded for 72 hours. When applicable, a 1000× solution of nicotinic acid (NA; Sigma-Aldrich, St. Louis, Mo.) dissolved in water was generated, and 1×NA (10 μM final concentration) was added at the same time as the test compound. After 72 hour, 50 μL of CellTiter-Glo Luminescent Cell Viability Assay reagent (Promega Corporation, Madison, Wis.) was added to cells in 200 μL of cellular media. After a proscribed incubation period, luminescence was measured using a TopCount NXT plate reader (PerkinElmer, Waltham, Mass.).

[1] = HCT116 cells, 72 hours drug incubation, CellTiter-Glo luminescence, read-out: HCT116 cell cytotoxicity IC50

| SMILES | IC50 at 72 h [1] [nM] | IC50 at 72 h (HCT116 cell cytotoxicity IC50) [nM] |
| --- | --- | --- |
| Cc1c(C(=O)N2CCN(C3CCCCC3)CC2)c2ccccc2n1-c1ccc(NC(=O)NCc2cccnc2)cc1 [Compound 104, 1-(4-{3-[(4-Cyclohexyl-piperazin-1-yl)carbonyl]-2-methyl-1H-indol-1-yl}phenyl)-3-(pyridin-3-ylmethyl)urea] | < 100 |  |
| O=C(NCc1cccnc1)Nc1ccc(-n2cc(C3CCN(C4COC4)CC3)c3ccccc32)cc1 [Compound 105, 1-(4-{3-[1-(Oxetan-3-yl)piperidin-4-yl]-1H-indol-1-yl}phenyl)-3-(pyridin-3-ylmethyl)urea] | < 100 |  |
| CCOC(=O)c1cn(CCCNC(=O)NCc2cccnc2)c2ccccc12 [Compound 106, Ethyl 1-(3-{[(pyridin-3-ylmethyl)carbamoyl]ami-no}propyl)-1H-indole-3-carboxylate] | ≥ 100 |  |
| O=C(NCc1cccnc1)Nc1ccc(-n2cc(C(=O)N3CCC(N4CCC(F)(F)CC4)CC3)c3ccccc32)c(Cl)c1 [Compound 107, 1-(3-Chloro-4-{3-[(4,4-difluoro-1,4′-bipiperidin-1′-yl)carbonyl]-1H-indol-1-yl}phenyl)-3-(pyridin-3-ylmethyl)urea] | < 100 |  |
| Cc1c(C(=O)N2CCC(O)CC2)c2ccccc2n1-c1ccc(NC(=O)NCc2cccnc2)cc1 [Compound 108, 1-(4-{3-[(4-Hydroxypiperidin-1-yl)carbonyl]-2-methyl-1H-indol-1-yl}phenyl)-3-(pyridin-3-yl-methyl)urea] | < 100 |  |
| O=C(NCc1cccnc1)Nc1ccc(-n2cc(C3CCN(C4CCCC4)CC3)c3ccccc32)cc1 [Compound 110, 1-{4-[3-(1-Cyclopentyl-piperidin-4-yl)-1H-indol-1-yl]phenyl}-3-(pyridin-3-ylmethyl)urea] | < 100 |  |
| CN1CCC(c2cn(-c3ccc(NC(=O)NCc4cccnc4)cc3)c3ccccc23)CC1 [Compound 111, 1-{4-[3-(1-Methylpiperidin-4-yl)-1H-indol-1-yl]phenyl}-3-(pyridin-3-ylmethyl)urea] | < 100 |  |
| CN(C)CC(=O)N1CCC2(CC1)CN(c1ccc(NC(=O)NCc3cccnc3)cc1)c1ccccc12 [Compound 112, 1-{4-[1′-(N,N-Dimethylglycyl)spiro[indole-3,4′-piperidin]-1(2H)-yl]phenyl}-3-(pyridin-3-ylmethyl)urea] | < 100 |  |
| CCN1CCN(C(=O)c2cn(CCCCCNC(=O)NCc3cncs3)c3ccccc23)CC1 [Compound 113, 1-(5-{3-[(4-Ethylpiperazin-1-yl)carbonyl]-1H-indol-1-yl}pentyl)-3-(1,3-thiazol-5-ylmethyl) urea] | < 100 |  |
| O=C(NCc1cccnc1)Nc1ccc(-n2nc(N3CCN(C4COC4)CC3)c3ccccc32)cc1 [Compound 114, 1-(4-{3-[4-(Oxetan-3-yl)piperazin-1-yl]-1H-indazol-1-yl}phenyl)-3-(pyridin-3-ylmethyl)urea] | < 100 |  |
| CN1CCN(C2CCN(C(=O)c3cn(CCCCNC(=O)NCc4cccnc4)c4ccccc34)CC2)CC1 [Compound 115, 1-[4-(3-{[4-(4-Methylpiperazin-1-yl)piperidin-1-yl]carbonyl}-1H-indol-1-yl)butyl]-3-(pyridin-3-ylmethyl)urea] | < 100 |  |
| O=C(NCCCCCn1cc(C(=O)N2CCN(C3CCCCC3)CC2)c2ccccc21)NCc1cccnc1 [Compound 116, 1-(5-{3-[(4-Cyclohexyl-piperazin-1-yl)carbonyl]-1H-indol-1-yl}pentyl)-3-(pyridin-3-ylmethyl)urea] | < 100 |  |
| O=C(NCc1cccnc1)Nc1ccc(N2CC3(CCN(C4CCCC4)CC3)c3ccccc32)cc1 [Compound 117, 1-[4-(1′-Cyclo-pentylspiro[indole-3,4′-piperidin]-1(2H)-yl)phenyl]-3-(pyridin-3-ylmethyl)urea] | < 100 |  |
| O=C(NCc1cccnc1)Nc1ccc(-n2cc(-c3nccn3CCCN3CCCC3)c3ccccc32)cc1 [Compound 120, 1-(Pyridin-3-ylmethyl)-3-[4-(3-{1-[3-(pyrrolidin-1-yl)propyl]-1H-imidazol-2-yl}-1H-indol-1-yl)phenyl] urea] |  | ≥ 100 |

— patent US20140349989A1, “COMPOUNDS AND THERAPEUTIC USES THEREOF” (Alzheimer's Institute of America, priority 2011, published 2014)
